Measurements from PubChem BioAssay (NCI).
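GI50: concentration for 50% inhibition of growth. The concentration for full growth arrest is given as TGI.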

What was measured:
Assay in all cases: NCI anticancer screen, dose series, 384-well format
UACC-62 melanoma = test system: UACC-62 melanoma
CCRF-CEM leukemia = test system: CCRF-CEM leukemia
SN12C renal = test system: SN12C renal
OVCAR-3 ovarian = test system: OVCAR-3 ovarian
SK-MEL-28 melanoma = test system: SK-MEL-28 melanoma
EKVX NSCLC = test system: EKVX NSCLC
A549 NSCLC = test system: A549 NSCLC
NCI-H460 NSCLC = test system: NCI-H460 NSCLC
M14 melanoma = test system: M14 melanoma
RPMI-8226 leukemia = test system: RPMI-8226 leukemia
CAKI-1 renal = test system: CAKI-1 renal
OVCAR-5 ovarian = test system: OVCAR-5 ovarian
KM12 colon = test system: KM12 colon
MCF7 breast = test system: MCF7 breast
NCI-H322M lung = test system: NCI-H322M lung
SR leukemia = test system: SR leukemia
SW-620 colon = test system: SW-620 colon
HCT-116 colon = test system: HCT-116 colon
UO-31 renal = test system: UO-31 renal
HOP-62 NSCLC = test system: HOP-62 NSCLC
TK-10 renal = test system: TK-10 renal
HT29 colon = test system: HT29 colon
SNB-75 CNS = test system: SNB-75 CNS
A498 renal = test system: A498 renal
786-0 renal = test system: 786-0 renal
SF-295 CNS = test system: SF-295 CNS
MDA-MB-231 breast = test system: MDA-MB-231 breast
UACC-257 melanoma = test system: UACC-257 melanoma
SK-MEL-5 melanoma = test system: SK-MEL-5 melanoma
DU-145 prostate = test system: DU-145 prostate
RXF 393 renal = test system: RXF 393 renal
SK-MEL-2 melanoma = test system: SK-MEL-2 melanoma
MDA-MB-468 breast = test system: MDA-MB-468 breast
T-47D breast = test system: T-47D breast
MALME-3M melanoma = test system: MALME-3M melanoma
SNB-19 CNS = test system: SNB-19 CNS
NCI-H226 lung = test system: NCI-H226 lung
OVCAR-4 ovarian = test system: OVCAR-4 ovarian
HCT-15 colon = test system: HCT-15 colon
SF-268 CNS = test system: SF-268 CNS
U251 glioblastoma = test system: U251 glioblastoma
IGROV1 ovarian = test system: IGROV1 ovarian
LOX IMVI melanoma = test system: LOX IMVI melanoma
HOP-92 NSCLC = test system: HOP-92 NSCLC
MOLT-4 leukemia = test system: MOLT-4 leukemia
NCI-H23 lung = test system: NCI-H23 lung
NCI/ADR-RES ovarian = test system: NCI/ADR-RES ovarian
K-562 leukemia = test system: K-562 leukemia
BT-549 breast = test system: BT-549 breast
SK-OV-3 ovarian = test system: SK-OV-3 ovarian
HS 578T breast = test system: HS 578T breast
HL-60(TB) leukemia = test system: HL-60(TB) leukemia
MDA-MB-435 melanoma = test system: MDA-MB-435 melanoma
NCI-H522 lung = test system: NCI-H522 lung
PC-3 prostate = test system: PC-3 prostate
COLO 205 colon = test system: COLO 205 colon
SF-539 CNS = test system: SF-539 CNS
ACHN renal = test system: ACHN renal
OVCAR-8 ovarian = test system: OVCAR-8 ovarian

## Cn1cc(-c2ccc3nnc(Sc4ccc5ncccc5c4)n3n2)cn1
UACC-62 melanoma
  GI50: > 100 µM
  TGI: > 100 µM
CCRF-CEM leukemia
  GI50: > 100 µM
  TGI: > 100 µM
SN12C renal
  GI50: > 100 µM
  TGI: > 100 µM
OVCAR-3 ovarian
  GI50: > 100 µM
  TGI: > 100 µM
SK-MEL-28 melanoma
  GI50: > 100 µM
  TGI: > 100 µM
EKVX NSCLC
  GI50: > 100 µM
  TGI: > 100 µM
A549 NSCLC
  GI50: > 100 µM
  TGI: > 100 µM
NCI-H460 NSCLC
  GI50: > 100 µM
  TGI: > 100 µM
M14 melanoma
  GI50: > 100 µM
  TGI: > 100 µM
RPMI-8226 leukemia
  GI50: > 100 µM
  TGI: > 100 µM
CAKI-1 renal
  GI50: > 100 µM
  TGI: > 100 µM
OVCAR-5 ovarian
  GI50: > 100 µM
  TGI: > 100 µM
KM12 colon
  GI50: > 100 µM
  TGI: > 100 µM
MCF7 breast
  GI50: > 100 µM
  TGI: > 100 µM
NCI-H322M lung
  GI50: > 100 µM
  TGI: > 100 µM
SR leukemia
  GI50: 27.2 µM
  TGI: > 100 µM
SW-620 colon
  GI50: > 100 µM
  TGI: > 100 µM
HCT-116 colon
  GI50: > 100 µM
  TGI: > 100 µM
UO-31 renal
  GI50: > 100 µM
  TGI: > 100 µM
HOP-62 NSCLC
  GI50: > 100 µM
  TGI: > 100 µM
TK-10 renal
  GI50: > 100 µM
  TGI: > 100 µM
HT29 colon
  GI50: > 100 µM
  TGI: > 100 µM
SNB-75 CNS
  GI50: > 100 µM
  TGI: > 100 µM
A498 renal
  GI50: > 100 µM
  TGI: > 100 µM
786-0 renal
  GI50: > 100 µM
  TGI: > 100 µM
SF-295 CNS
  GI50: 46.3 µM
  TGI: > 100 µM
MDA-MB-231 breast
  GI50: > 100 µM
  TGI: > 100 µM
UACC-257 melanoma
  GI50: > 100 µM
  TGI: > 100 µM
SK-MEL-5 melanoma
  GI50: > 100 µM
  TGI: > 100 µM
DU-145 prostate
  GI50: > 100 µM
  TGI: > 100 µM
RXF 393 renal
  GI50: 38.2 µM
  TGI: > 100 µM
SK-MEL-2 melanoma
  GI50: > 100 µM
  TGI: > 100 µM
MDA-MB-468 breast
  GI50: 13.8 µM
  TGI: 48.4 µM
T-47D breast
  GI50: > 100 µM
  TGI: > 100 µM
MALME-3M melanoma
  GI50: > 100 µM
  TGI: > 100 µM
SNB-19 CNS
  GI50: > 100 µM
  TGI: > 100 µM
NCI-H226 lung
  GI50: > 100 µM
  TGI: > 100 µM
OVCAR-4 ovarian
  GI50: > 100 µM
  TGI: > 100 µM
HCT-15 colon
  GI50: > 100 µM
  TGI: > 100 µM
SF-268 CNS
  GI50: > 100 µM
  TGI: > 100 µM
U251 glioblastoma
  GI50: > 100 µM
  TGI: > 100 µM
IGROV1 ovarian
  GI50: > 100 µM
  TGI: > 100 µM
LOX IMVI melanoma
  GI50: > 100 µM
  TGI: > 100 µM
HOP-92 NSCLC
  GI50: > 100 µM
  TGI: > 100 µM
MOLT-4 leukemia
  GI50: > 100 µM
  TGI: > 100 µM
NCI-H23 lung
  GI50: > 100 µM
  TGI: > 100 µM
NCI/ADR-RES ovarian
  GI50: > 100 µM
  TGI: > 100 µM
K-562 leukemia
  GI50: > 100 µM
  TGI: > 100 µM
BT-549 breast
  GI50: > 100 µM
  TGI: > 100 µM
SK-OV-3 ovarian
  GI50: > 100 µM
  TGI: > 100 µM
HS 578T breast
  GI50: 61.6 µM
  TGI: > 100 µM
HL-60(TB) leukemia
  GI50: > 100 µM
  TGI: > 100 µM
MDA-MB-435 melanoma
  GI50: > 100 µM
  TGI: > 100 µM
NCI-H522 lung
  GI50: > 100 µM
  TGI: > 100 µM
PC-3 prostate
  GI50: > 100 µM
  TGI: > 100 µM
COLO 205 colon
  GI50: > 100 µM
  TGI: > 100 µM
SF-539 CNS
  GI50: > 100 µM
  TGI: > 100 µM
ACHN renal
  GI50: > 100 µM
  TGI: > 100 µM

## O=C1CCC(N2C(=O)c3ccccc3C2=O)C(=O)N1 (stereo unspecified)
UACC-62 melanoma
  GI50: > 100 µM
  TGI: > 100 µM
CCRF-CEM leukemia
  GI50: > 100 µM
  TGI: > 100 µM
SN12C renal
  GI50: > 100 µM
  TGI: > 100 µM
OVCAR-3 ovarian
  GI50: > 100 µM
  TGI: > 100 µM
SK-MEL-28 melanoma
  GI50: > 100 µM
  TGI: > 100 µM
EKVX NSCLC
  GI50: > 100 µM
  TGI: > 100 µM
A549 NSCLC
  GI50: > 100 µM
  TGI: > 100 µM
M14 melanoma
  GI50: > 100 µM
  TGI: > 100 µM
RPMI-8226 leukemia
  GI50: > 100 µM
  TGI: > 100 µM
CAKI-1 renal
  GI50: > 100 µM
  TGI: > 100 µM
OVCAR-5 ovarian
  GI50: > 100 µM
  TGI: > 100 µM
KM12 colon
  GI50: > 100 µM
  TGI: > 100 µM
MCF7 breast
  GI50: > 100 µM
  TGI: > 100 µM
NCI-H322M lung
  GI50: > 100 µM
  TGI: > 100 µM
SW-620 colon
  GI50: > 100 µM
  TGI: > 100 µM
HCT-116 colon
  GI50: > 100 µM
  TGI: > 100 µM
UO-31 renal
  GI50: > 100 µM
  TGI: > 100 µM
HOP-62 NSCLC
  GI50: > 100 µM
  TGI: > 100 µM
TK-10 renal
  GI50: > 100 µM
  TGI: > 100 µM
HT29 colon
  GI50: > 100 µM
  TGI: > 100 µM
SNB-75 CNS
  GI50: > 100 µM
  TGI: > 100 µM
A498 renal
  GI50: > 100 µM
  TGI: > 100 µM
786-0 renal
  GI50: > 100 µM
  TGI: > 100 µM
SF-295 CNS
  GI50: > 100 µM
  TGI: > 100 µM
MDA-MB-231 breast
  GI50: > 100 µM
  TGI: > 100 µM
UACC-257 melanoma
  GI50: > 100 µM
  TGI: > 100 µM
DU-145 prostate
  GI50: > 100 µM
  TGI: > 100 µM
RXF 393 renal
  GI50: > 100 µM
  TGI: > 100 µM
SK-MEL-2 melanoma
  GI50: > 100 µM
  TGI: > 100 µM
MDA-MB-468 breast
  GI50: > 100 µM
  TGI: > 100 µM
T-47D breast
  GI50: > 100 µM
  TGI: > 100 µM
MALME-3M melanoma
  GI50: > 100 µM
  TGI: > 100 µM
SNB-19 CNS
  GI50: > 100 µM
  TGI: > 100 µM
NCI-H226 lung
  GI50: > 100 µM
  TGI: > 100 µM
OVCAR-4 ovarian
  GI50: > 100 µM
  TGI: > 100 µM
HCT-15 colon
  GI50: > 100 µM
  TGI: > 100 µM
SF-268 CNS
  GI50: > 100 µM
  TGI: > 100 µM
U251 glioblastoma
  GI50: > 100 µM
  TGI: > 100 µM
IGROV1 ovarian
  GI50: > 100 µM
  TGI: > 100 µM
LOX IMVI melanoma
  GI50: > 100 µM
  TGI: > 100 µM
HOP-92 NSCLC
  GI50: > 100 µM
  TGI: > 100 µM
MOLT-4 leukemia
  GI50: > 100 µM
  TGI: > 100 µM
NCI-H23 lung
  GI50: > 100 µM
  TGI: > 100 µM
NCI/ADR-RES ovarian
  GI50: > 100 µM
  TGI: > 100 µM
K-562 leukemia
  GI50: > 100 µM
  TGI: > 100 µM
BT-549 breast
  GI50: > 100 µM
  TGI: > 100 µM
SK-OV-3 ovarian
  GI50: > 100 µM
  TGI: > 100 µM
HS 578T breast
  GI50: > 100 µM
  TGI: > 100 µM
OVCAR-8 ovarian
  GI50: > 100 µM
  TGI: > 100 µM
HL-60(TB) leukemia
  GI50: > 100 µM
  TGI: > 100 µM
MDA-MB-435 melanoma
  GI50: > 100 µM
  TGI: > 100 µM
NCI-H522 lung
  GI50: > 100 µM
  TGI: > 100 µM
PC-3 prostate
  GI50: > 100 µM
  TGI: > 100 µM
SF-539 CNS
  GI50: > 100 µM
  TGI: > 100 µM
ACHN renal
  GI50: > 100 µM
  TGI: > 100 µM
